Assay results taken from article PMC4770715, “LIM kinase inhibitors disrupt mitotic microtubule organization and impair tumor cell proliferation” (Oncotarget, 2015).

How the values were obtained:
Assay in all cases: biochemical
Parameters in all cases: KINOMEscan active-site competition binding, percent of control (100 = no competition)
Conditions in all cases: competition binding, percent control
MRCKA = target: T1, MRCKA (Homo sapiens, UniProt Q5VT25)
T1 construct: gene CDC42BPA

FLT1 = FLT1 (Homo sapiens, UniProt P17948)
[1] = target: EGFR(L747-E749del, A750P) (Homo sapiens, UniProt P00533, A750P/DEL747-749)
ERBB3 = ERBB3 (Homo sapiens, UniProt P21860)
PLK3 = PLK3 (Homo sapiens, UniProt Q9H4B4)
MEK2 = target: T2, MEK2 (Homo sapiens, UniProt P36507)
T2 construct: gene MAP2K2

[2] = target: T3, RSK3(Kin.Dom.2-C-terminal) (Homo sapiens, UniProt Q15349)
T3 construct: gene RPS6KA2; Kin.Dom.2-C-terminal

MARK1 = MARK1 (Homo sapiens, UniProt Q9P0L2)
AKT2 = AKT2 (Homo sapiens, UniProt P31751)
PYK2 = target: T4, PYK2 (Homo sapiens, UniProt Q14289)
T4 construct: gene PTK2B

DAPK1 = DAPK1 (Homo sapiens, UniProt P53355)
PRKCI = PRKCI (Homo sapiens, UniProt P41743)
MAP3K4 = MAP3K4 (Homo sapiens, UniProt Q9Y6R4)
AURKB = AURKB (Homo sapiens, UniProt Q96GD4)
EPHA8 = EPHA8 (Homo sapiens, UniProt P29322)
MET(M1250T) = MET(M1250T) (Homo sapiens, UniProt P08581, M1250T)
QSK = target: T5, QSK (Homo sapiens, UniProt Q9Y2K2)
T5 construct: gene SIK3

PIP5K2C = target: T6, PIP5K2C (Homo sapiens, UniProt Q8TBX8)
T6 construct: gene PIP4K2C

RIPK1 = RIPK1 (Homo sapiens, UniProt Q13546)
MYO3B = MYO3B (Homo sapiens, UniProt Q8WXR4)
SRPK1 = SRPK1 (Homo sapiens, UniProt Q96SB4)
NIM1 = target: T7, NIM1 (Homo sapiens, UniProt Q8IY84)
T7 construct: gene NIM1K

MST4 = target: T8, MST4 (Homo sapiens, UniProt Q9P289)
T8 construct: gene STK26

Sequence of MAP3K4 (Q9Y6R4 whole entry): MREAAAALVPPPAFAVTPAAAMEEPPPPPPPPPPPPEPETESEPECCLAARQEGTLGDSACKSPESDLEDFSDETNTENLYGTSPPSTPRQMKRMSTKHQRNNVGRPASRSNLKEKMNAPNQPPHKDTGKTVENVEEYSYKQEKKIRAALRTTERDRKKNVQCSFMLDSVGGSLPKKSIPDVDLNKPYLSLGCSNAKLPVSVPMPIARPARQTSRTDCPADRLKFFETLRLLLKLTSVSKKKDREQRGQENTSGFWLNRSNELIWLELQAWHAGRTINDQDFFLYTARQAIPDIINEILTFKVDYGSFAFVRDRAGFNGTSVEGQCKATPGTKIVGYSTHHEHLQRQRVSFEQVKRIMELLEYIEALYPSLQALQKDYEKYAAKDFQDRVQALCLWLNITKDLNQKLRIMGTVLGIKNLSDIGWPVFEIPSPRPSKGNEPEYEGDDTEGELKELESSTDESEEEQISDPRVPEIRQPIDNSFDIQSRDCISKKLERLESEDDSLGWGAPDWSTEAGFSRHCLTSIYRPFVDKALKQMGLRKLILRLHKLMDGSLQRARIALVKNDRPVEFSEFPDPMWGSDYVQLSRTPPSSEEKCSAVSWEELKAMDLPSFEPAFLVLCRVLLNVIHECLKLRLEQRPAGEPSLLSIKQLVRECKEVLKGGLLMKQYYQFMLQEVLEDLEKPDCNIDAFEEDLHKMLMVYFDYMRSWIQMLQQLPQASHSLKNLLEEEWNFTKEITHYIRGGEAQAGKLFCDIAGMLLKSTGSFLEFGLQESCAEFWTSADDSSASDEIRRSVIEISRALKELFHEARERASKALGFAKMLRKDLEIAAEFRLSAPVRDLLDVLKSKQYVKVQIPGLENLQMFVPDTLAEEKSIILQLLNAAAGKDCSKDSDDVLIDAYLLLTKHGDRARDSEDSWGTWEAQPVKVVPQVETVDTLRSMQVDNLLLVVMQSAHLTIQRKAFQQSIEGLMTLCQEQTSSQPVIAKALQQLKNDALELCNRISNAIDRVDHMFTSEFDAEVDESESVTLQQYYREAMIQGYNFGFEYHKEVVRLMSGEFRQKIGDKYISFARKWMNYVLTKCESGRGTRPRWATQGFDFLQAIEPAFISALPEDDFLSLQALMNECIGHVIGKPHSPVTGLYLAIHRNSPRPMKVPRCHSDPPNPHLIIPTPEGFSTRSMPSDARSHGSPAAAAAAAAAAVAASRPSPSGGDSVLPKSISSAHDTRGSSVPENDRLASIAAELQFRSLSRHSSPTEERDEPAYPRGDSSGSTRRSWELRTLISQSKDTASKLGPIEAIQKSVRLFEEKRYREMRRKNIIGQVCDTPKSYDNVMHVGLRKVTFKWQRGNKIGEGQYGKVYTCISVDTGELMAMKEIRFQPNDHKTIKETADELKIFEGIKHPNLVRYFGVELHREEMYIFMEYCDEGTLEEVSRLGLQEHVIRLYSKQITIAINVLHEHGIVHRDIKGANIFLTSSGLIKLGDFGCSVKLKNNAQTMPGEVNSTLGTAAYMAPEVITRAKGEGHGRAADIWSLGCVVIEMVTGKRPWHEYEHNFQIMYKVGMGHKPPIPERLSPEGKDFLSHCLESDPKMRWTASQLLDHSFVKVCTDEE
T2 sequence (P36507 whole entry): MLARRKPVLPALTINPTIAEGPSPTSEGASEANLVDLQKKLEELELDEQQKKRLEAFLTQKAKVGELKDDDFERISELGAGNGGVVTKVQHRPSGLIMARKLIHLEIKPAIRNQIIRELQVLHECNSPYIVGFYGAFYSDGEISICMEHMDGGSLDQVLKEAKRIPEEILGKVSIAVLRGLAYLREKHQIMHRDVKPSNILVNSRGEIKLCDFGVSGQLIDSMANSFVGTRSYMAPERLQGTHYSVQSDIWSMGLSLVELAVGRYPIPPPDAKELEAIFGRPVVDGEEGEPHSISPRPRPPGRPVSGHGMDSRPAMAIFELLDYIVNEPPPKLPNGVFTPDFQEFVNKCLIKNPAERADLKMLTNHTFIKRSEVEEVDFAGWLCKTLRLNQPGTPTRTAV
Sequence of MARK1 (Q9P0L2 whole entry): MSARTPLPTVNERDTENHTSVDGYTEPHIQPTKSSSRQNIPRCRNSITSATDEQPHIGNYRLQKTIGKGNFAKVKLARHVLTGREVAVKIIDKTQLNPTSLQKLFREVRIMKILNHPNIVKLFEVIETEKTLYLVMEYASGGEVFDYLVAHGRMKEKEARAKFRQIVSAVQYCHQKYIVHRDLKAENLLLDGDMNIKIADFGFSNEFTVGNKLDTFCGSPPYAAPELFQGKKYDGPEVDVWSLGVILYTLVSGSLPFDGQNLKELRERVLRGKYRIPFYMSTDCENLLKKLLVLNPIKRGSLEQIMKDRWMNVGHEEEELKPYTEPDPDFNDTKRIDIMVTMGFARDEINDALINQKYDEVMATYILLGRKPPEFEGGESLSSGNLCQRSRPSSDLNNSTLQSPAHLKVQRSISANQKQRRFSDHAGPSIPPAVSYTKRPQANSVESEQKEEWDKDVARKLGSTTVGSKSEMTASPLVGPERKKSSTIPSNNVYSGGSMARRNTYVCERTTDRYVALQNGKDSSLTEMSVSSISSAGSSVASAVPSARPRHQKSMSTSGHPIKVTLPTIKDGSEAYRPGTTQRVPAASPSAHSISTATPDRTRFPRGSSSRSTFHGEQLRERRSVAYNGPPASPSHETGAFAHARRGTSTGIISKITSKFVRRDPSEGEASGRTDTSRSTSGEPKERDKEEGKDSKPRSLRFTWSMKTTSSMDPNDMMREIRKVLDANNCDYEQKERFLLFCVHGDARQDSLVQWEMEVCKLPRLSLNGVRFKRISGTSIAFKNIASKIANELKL
Sequence of SRPK1 (Q96SB4 whole entry): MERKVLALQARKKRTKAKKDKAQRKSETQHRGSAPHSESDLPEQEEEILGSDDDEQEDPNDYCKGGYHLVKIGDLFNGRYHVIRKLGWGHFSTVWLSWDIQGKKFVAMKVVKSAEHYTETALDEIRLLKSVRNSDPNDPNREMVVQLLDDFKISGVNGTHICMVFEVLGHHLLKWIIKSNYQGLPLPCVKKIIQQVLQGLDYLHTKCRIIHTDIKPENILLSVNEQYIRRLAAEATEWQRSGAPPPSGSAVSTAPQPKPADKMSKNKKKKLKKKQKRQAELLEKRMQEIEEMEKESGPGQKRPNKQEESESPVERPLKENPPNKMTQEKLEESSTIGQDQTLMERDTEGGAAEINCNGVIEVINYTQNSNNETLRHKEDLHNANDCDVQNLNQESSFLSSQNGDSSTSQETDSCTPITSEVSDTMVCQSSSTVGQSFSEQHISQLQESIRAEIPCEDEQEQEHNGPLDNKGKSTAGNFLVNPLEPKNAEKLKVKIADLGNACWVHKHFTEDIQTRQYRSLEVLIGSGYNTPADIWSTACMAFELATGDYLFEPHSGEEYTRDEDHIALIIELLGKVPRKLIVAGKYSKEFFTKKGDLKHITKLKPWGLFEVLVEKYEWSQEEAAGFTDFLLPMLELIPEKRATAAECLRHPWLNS
T4 sequence (Q14289 whole entry): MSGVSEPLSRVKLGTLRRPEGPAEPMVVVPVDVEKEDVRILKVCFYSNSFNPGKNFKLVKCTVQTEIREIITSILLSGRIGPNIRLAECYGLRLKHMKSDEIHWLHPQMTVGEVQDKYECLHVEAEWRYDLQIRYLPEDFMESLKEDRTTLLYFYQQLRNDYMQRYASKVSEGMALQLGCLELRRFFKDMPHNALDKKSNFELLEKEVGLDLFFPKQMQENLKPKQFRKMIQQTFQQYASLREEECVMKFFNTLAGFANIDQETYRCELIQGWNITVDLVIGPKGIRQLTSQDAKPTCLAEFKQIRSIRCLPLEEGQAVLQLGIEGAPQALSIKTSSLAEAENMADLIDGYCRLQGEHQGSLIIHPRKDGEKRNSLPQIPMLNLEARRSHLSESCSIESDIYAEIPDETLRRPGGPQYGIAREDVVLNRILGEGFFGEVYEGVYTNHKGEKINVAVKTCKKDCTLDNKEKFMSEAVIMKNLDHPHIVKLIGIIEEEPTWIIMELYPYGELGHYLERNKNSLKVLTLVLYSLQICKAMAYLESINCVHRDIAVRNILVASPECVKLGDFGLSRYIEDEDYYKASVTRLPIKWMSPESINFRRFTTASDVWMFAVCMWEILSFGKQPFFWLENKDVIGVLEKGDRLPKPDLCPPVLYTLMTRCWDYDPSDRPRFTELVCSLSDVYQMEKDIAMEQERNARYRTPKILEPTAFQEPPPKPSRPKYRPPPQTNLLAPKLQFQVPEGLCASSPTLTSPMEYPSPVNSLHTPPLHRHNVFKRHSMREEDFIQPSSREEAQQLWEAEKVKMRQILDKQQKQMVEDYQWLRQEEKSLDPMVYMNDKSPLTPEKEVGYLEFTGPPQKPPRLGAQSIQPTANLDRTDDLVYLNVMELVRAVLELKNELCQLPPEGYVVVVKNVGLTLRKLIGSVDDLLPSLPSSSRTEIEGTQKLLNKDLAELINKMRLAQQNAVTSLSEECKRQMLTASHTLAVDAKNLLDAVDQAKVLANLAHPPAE
Sequence of AKT2 (P31751 whole entry): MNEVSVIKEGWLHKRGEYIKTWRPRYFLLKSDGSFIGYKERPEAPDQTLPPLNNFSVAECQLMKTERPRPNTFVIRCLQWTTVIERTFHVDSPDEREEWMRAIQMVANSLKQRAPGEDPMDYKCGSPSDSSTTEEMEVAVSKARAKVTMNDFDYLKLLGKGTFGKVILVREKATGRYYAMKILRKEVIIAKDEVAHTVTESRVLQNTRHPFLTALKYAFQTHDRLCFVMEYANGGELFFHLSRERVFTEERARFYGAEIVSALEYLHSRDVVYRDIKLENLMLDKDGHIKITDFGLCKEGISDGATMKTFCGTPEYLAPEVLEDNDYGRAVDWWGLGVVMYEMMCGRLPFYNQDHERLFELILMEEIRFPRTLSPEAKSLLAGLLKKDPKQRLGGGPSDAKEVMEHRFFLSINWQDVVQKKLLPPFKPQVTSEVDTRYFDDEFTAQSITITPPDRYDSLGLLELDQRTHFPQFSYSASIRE

| SMILES | remaining binding at 10 µM (MRCKA) [%] | remaining binding at 10 µM (FLT1) [%] | remaining binding at 10 µM [1] [%] | remaining binding at 10 µM (ERBB3) [%] | remaining binding at 10 µM (PLK3) [%] | remaining binding at 10 µM (MEK2) [%] | remaining binding at 10 µM [2] [%] | remaining binding at 10 µM (MARK1) [%] | remaining binding at 10 µM (AKT2) [%] | remaining binding at 10 µM (PYK2) [%] | remaining binding at 10 µM (DAPK1) [%] | remaining binding at 10 µM (PRKCI) [%] | remaining binding at 10 µM (MAP3K4) [%] | remaining binding at 10 µM (AURKB) [%] | remaining binding at 10 µM (EPHA8) [%] | remaining binding at 10 µM (MET(M1250T)) [%] | remaining binding at 10 µM (QSK) [%] | remaining binding at 10 µM (PIP5K2C) [%] | remaining binding at 10 µM (RIPK1) [%] | remaining binding at 10 µM (MYO3B) [%] | other results |
| --- | --- | --- | --- | --- | --- | --- | --- | --- | --- | --- | --- | --- | --- | --- | --- | --- | --- | --- | --- | --- | --- |
| COc1ccc(-c2cnccc2-c2cnc(NC(=O)C(C)C)s2)c(C(F)(F)F)c1 [CRT0105446, N-{5-[3-(4-Methoxy-2-trifluoromethyl-phenyl)-pyridin-4-yl]-hiazol-2-yl}-isobutyramide] | 77 | 80 | 98 | 100 | 97 | 92 | 93 | 87 | 100 | 100 | 100 | 81 | 99 | 80 | 100 | 93 | 100 | 3 | 90 | 100 | remaining binding at 10 µM (SRPK1): 100%; remaining binding at 10 µM (NIM1): 100%; remaining binding at 10 µM (MST4): 61% |
| Cc1ccc(-c2cnccc2-c2cnc(Nc3ccc(O)cc3)s2)c(Cl)c1 [CRT0105950, 4-{5-[3-(2-Chloro-4-methyl-phenyl)-pyridin-4-yl]-thiazol-2-ylamino}-phenol] | 84 | 21 | 64 | 100 | 44 | 42 | 88 | 5.8 | 100 | 2.2 | 82 | 79 | 100 | 0.15 | 88 | 19 | 72 | 2.3 | 17 | 90 | remaining binding at 10 µM (SRPK1): 74%; remaining binding at 10 µM (NIM1): 100%; remaining binding at 10 µM (MST4): 37% |
